Test results taken from US11225507B2, “Conformation switchable antimicrobial peptides and methods of using the same” (priority 2017, dated 2022).
Like-named read-outs stand apart in the source and are kept apart here.

How the values were obtained:
E. coli MG1655 = test: Minimal inhibition concentration (MIC), E. coli MG1655; type: cell-based, Escherichia coli; settings: pH 7.4
Protocol: Minimal inhibition concentration (MIC). Gram-negative bacteria, DH5α and MG1655 (E. coli) were grown in LB medium at 37° C. For determination of the MIC, polypeptides were dissolved in media using serial dilutions from a stock solution. Into each well of a 96-well plate was added 200 μL of each concentration and 2 μL of bacteria (1×10^8 CFU (colony forming units)) in medium. The plate was incubated at 37° C. The optical density readings of microorganism solutions were measured after 24 h incubation. The MIC was considered as the lowest concentration of peptide where no visual growth of bacteria was detected.

H. pylori SS1 [1] = test: H. pylori killing kinetics at various pHs (CFU counting, 1 h); type: cell-based, Helicobacter pylori
Protocol: H. pylori killing kinetics at various pHs. The killing kinetics of polypeptides were measured against H. pylori by counting the colony forming units (CFU) of alive bacteria with agar plating. The polypeptides at various concentrations were dissolved in the Tris-HC buffer at various pHs (pH 7.4, 4.0, 3.0). H. pylori were then collected and dispersed in the BB medium supplied with fresh urea (10 mM) and 10% FBS at different pHs (pH 7.4, 4.0, 3.0). The optical density at 600 nm of the bacteria were fixed at 0.1. The bacteria were then incubated with the polypeptides solution at corresponding pH in the incubator supplied with 10% CO2 at 37° C. Samples were taken for a series of ten-fold dilutions, and plated out in BB agar plates with 10% FBS and vancomycin (pH 7.4) after 1 h incubation. The plates were incubated for 72 h in the incubator and the bacteria were counted for CFU. Bacteria incubated with Tris-HCl buffer only at corresponding pH were served as 100% survival. Survival rate (%)=CFU of bacteria treated with polypeptides/CFU of bacteria treated with buffer×100%. The killing kinetics of antibiotics (OAC, omeprazole, amoxicillin, clarithromycin) against H. pylori were determined with a similar procedure. The antibiotics at various concentrations were dissolved in the Tris-HCl buffer at pH 7.4, or 3.0, and were then incubated with H. pylori in BB medium supplied with fresh urea (10 mM) and 10% FBS at corresponding pH in the incubator. After 1 h incubation, the bacteria were collected by centrifuge at 10,000 rcf for 5 min and washed with fresh BB medium. Samples were then taken for a series of ten-fold dilutions, and plated out in BB agar plates with 10% FBS and vancomycin. The plates were incubated for 72 h in the incubator and the bacteria were counted for CFU.

[2] = tested on: clinically isolated H. pylori strains, including clarithromycin-resistant J99A-7, J99A-11, J99C-8, and J99D-1; test: Bactericidal activity against clinically isolated H. pylori strains; type: cell-based, Helicobacter pylori; settings: pH 3.0, 1 h incubation, 4.4 μM
Protocol: FIG. 3. HCT-AMPs effectively kill clinically isolated drug resistant H. pylori. (A) The bactericidal activity of PL2 against clinically isolated H. pylori strains. PL2, dissolved in the Tris-HCl buffer (pH 3.0), were incubated with clinically isolated strains in BB medium supplied with fresh urea, FBS and vancomycin (pH 3.0) for 1 h. The final concentration of PL2 was 4.4 μM. (B) The antibacterial activity of triple therapy against J99A-11 at pH 7.4 or 3.0. Concentrations of omeprazole, amoxicillin, and clarithromycin in OAC1 are 20.0 μM, 6.8 μM, and 1.9 μM, respectively; in OAC2 are 40.0 μM, 13.6 μM, and 3.8 μM, respectively; in OAC3 are 80.0 μM, 27.2 μM, and 7.6 μM, respectively (bars, left to right). (C) The antibacterial activity of omeprazole (0) and a combination of amoxicillin and clarithromycin (AC) against J99A-11 at pH 3.0. O1, O2, O3 represents the concentration of omeprazole at 20.0 μM, 40.0 μM, and 80.0 μM, respectively. AC1, AC2, AC3 represents the concentration of amoxicillin and clarithromycin at 6.8 μM and 1.9 μM, 13.6 μM and 3.8 μM, 27.2 μM and 7.6 μM, respectively.
H. pylori killing kinetics at various pHs. The killing kinetics of polypeptides were measured against H. pylori by counting the colony forming units (CFU) of alive bacteria with agar plating. […] The plates were incubated for 72 h in the incubator and the bacteria were counted for CFU. […]

H. pylori SS1 [3] = test: SEM analysis of bacterial morphology; type: cell-based, Helicobacter pylori; settings: 30 min
Protocol: SEM analysis. SS1 bacterial cells grown in BB with the supplement of 10% FBS under pH 7.4 or 4.0 with or without polypeptides (2.2 μM) treatment were performed using a similar protocol as killing kinetics measurements but with a 30 min incubation time. All the samples were collected into a microfuge tube and pelleted at 4000 rpm for 5 min, and then washed twice with phosphate-buffered saline. Subsequently, bacteria were fixed with paraformaldehyde solution (4%) for 1 h before proceeding, followed by washing with DI water. Dehydration was performed with a series of graded ethanol solution (10%, 25%, 50%, 75%, 95%, and 100%). The dehydrated samples were dried under vacuum overnight before being mounted on carbon tape and coated with gold-platinum for imaging using a Hitachi S-4700 High Solution SEM (Japan).

[4] = mouse, in vivo
Protocol: In vivo and ex vivo biodistribution of Cy5-PL2. Cy5-PL2 (2.6 μmol/kg), Cy5-PDL2 (2.6 μmol/kg) and PBS were administrated by oral gavage. Mice were placed on the sample stage equipped with anesthesia input and output ports, and imaged by the Bruker Xtreme In-Vivo Fluorescence Imaging System at 1 h, 2 h, 4 h, 7 h, and 24 h post injection (p.i.). The excitation filter was set at 630 nm and the emission filter was set at 700 nm. Collected images were analyzed by the Bruker molecular imaging software. Stomach, intestines, liver, lung, kidneys, heart, and spleen were harvested at 4 h or 24 h p.i. of Cy5-PL2 and imaged ex vivo using the Bruker Xtreme In-Vivo Imaging System. Ex vivo images were quantified by measuring FI at selected region of interest (ROI). All values were expressed as means±standard deviation (n=3). […] The other half of the stomach were placed into separate glass tubes containing 2 mL of lysis buffer (1% SDS, 100 10 mM Tris.HCl, pH 7.4, 1 tablet of EDTA-free protease inhibitor), homogenized, and incubated at 4° C. for 2 h. The lysates were then centrifuged at 3000 rcf for 10 min to remove the insoluble cell debris, and measured on a fluorescence spectrometer to determine the amount of Cy5 retained in the tissues. The amount of Cy5 was calculated based on the standard curve of Cy5 FI and normalized to percentage of injected dose (% I.D.) per gram tissue.

(PGA)18-r-(PHLG-MHH)20 [PL2]
minimal inhibitory concentration (MIC) (E. coli MG1655): higher than 70 μM
bactericidal activity against SS1 (H. pylori SS1 [1]; pH 3.0, 1 h incubation): higher bactericidal activity
bactericidal activity against SS1 (H. pylori SS1 [1]; pH 4.0, 1 h incubation): notable bacteria killing
bactericidal activity against SS1 (H. pylori SS1 [1]; pH 7.4, 1 h incubation): no bactericidal activity
bacterial strains killed [2]: over 90%
bacterial membrane/morphology by SEM (H. pylori SS1 [3]; pH 4.0, 2.2 μM): dramatic damage of the bacterial membranes
bacterial membrane/morphology by SEM (H. pylori SS1 [3]; pH 7.4, 2.2 μM): minimally affected the bacterial morphology
gastric retention [4]: ~6%
gastric retention ([4]; po, 2.6 umol/kg, 4 h): ~40 % ID/g
